Reference: US20170052177A1, “COMPETITION ASSAY” (PharmaDiagnostics NV, priority 2014, published 2017)
Ends that are not written are not given here.

How the values were obtained:
[1] = target: Neutravidin (Gallus gallus, UniProt P02701); assay: LSPR competition assay: Neutravidin pre-incubated with HABA or biotin, then biotin-GNR conjugate; assay type: binding; details: for ΔRU as a function of the HABA and biotin concentration: fixed Neutravidin, biotin-GNR conjugate, final DMSO 5 w %, increasing concentration of added compound (FIG. 2)
Chain of Neutravidin (P02701 25-152): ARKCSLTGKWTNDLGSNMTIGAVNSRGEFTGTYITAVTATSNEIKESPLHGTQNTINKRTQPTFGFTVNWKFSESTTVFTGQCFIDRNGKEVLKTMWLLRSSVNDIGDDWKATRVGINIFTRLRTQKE
Excerpt: Gold nanorods (GNRs) which are coated with mercaptoundecanoic acid (MUDA) were provided in suspension. The MUDA-coated GNRs provide an outer layer of carboxyl functional groups on their surface. For the conjugation of biotin to the GNRs, a biotin derivative (amino-PEG4-biotin) was used containing a polyethyleneglycol linker (4 monomers) having an amino functional group. More particularly, the carboxyl groups on the GNRs were activated using ethyl(dimethylaminopropyl) carbodiimide (EDC) and N-hydroxysuccinimide (NHS). Then, amino-PEG4-biotin was coupled via its amino functional group to the carboxyl groups provided on the GNRs, thereby providing a biotin-GNR conjugate. Potentially remaining unreacted carboxylic acid groups were blocked via reaction with 2-(2-aminoethoxy)ethanol (AEE). The biotin-GNR conjugate was purified from unreacted EDC, NHS, amino-PEG4-biotin and AEE by buffer exchange using a centrifugal ultrafiltration device.
The determination of the inhibition of the interaction between HABA and Neutravidin according to the methods described herein involves contacting the biotin-GNR conjugate with Neutravidin. The optimal amount of Neutravidin to be contacted with the conjugate was determined via titration. More particularly, a fixed amount of biotin-GNR was incubated with various concentrations of Neutravidin, and the absorbance spectra after incubation was recorded. ΔRU was calculated and plotted as a function of the Neutravidin concentration (FIG. 1). Suitable Neutravidin concentrations are determined as those concentrations which are sufficiently high to provide a detectable signal (ΔRU), provided that the signal is not in the plateau of the dose-response curve. Optimal concentrations are those providing a signal in the linear response range.
A fixed amount of Neutravidin was pre-incubated with different concentrations of HABA and biotin, followed by incubation with a fixed amount of biotin-GNR conjugate. HABA was provided as a solution in DMSO. […] The relative amounts of biotin-GNR and Neutravidin used are determined via titration as described above (A2). […]

[2] = target: MDM2 (Homo sapiens, UniProt Q00987); assay: LSPR competition assay: MDM2 pre-incubated with nutlin-3 or p53, then p53-GNR conjugate; assay type: binding; details: fixed MDM2, p53-GNR conjugate; increasing concentration of added compound (FIGS. 4A and 4B)
Chain of MDM2 (Q00987 whole entry, species assumed): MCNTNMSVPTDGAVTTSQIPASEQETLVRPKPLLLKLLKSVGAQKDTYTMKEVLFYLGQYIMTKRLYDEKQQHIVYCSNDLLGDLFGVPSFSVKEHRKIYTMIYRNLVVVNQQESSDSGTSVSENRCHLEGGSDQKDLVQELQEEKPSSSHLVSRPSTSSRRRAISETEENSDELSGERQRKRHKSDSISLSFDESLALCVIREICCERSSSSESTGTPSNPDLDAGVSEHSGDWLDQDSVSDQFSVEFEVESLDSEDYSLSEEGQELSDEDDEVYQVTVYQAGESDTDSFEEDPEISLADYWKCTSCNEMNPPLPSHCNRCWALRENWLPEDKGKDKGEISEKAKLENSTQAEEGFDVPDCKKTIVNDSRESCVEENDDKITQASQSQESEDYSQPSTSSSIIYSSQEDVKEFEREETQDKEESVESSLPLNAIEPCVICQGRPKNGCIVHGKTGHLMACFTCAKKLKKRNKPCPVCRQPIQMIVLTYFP
Description: The determination of the inhibition of the interaction between MDM2 and p53 according to the methods described herein involves contacting the p53-GNR conjugate with MDM2. The optimal amount of MDM2 to be contacted with the conjugate was determined via a similar titration experiment as described above for Neutravidin (A2). ΔRU was calculated and plotted as a function of the MDM2 concentration (FIG. 3).

Compound	ΔRU as a function of the HABA and biotin concentration [1]	relative affinity to Neutravidin ([1]; from concentration needed for significant reduction of ΔRU (FIG. 2))	ΔRU as a function of the added amount of nutlin-3 and p53 [2]
O=C(O)c1ccccc1N=Nc1ccc(O)cc1 [HABA, (2-(4-hydroxyazobenzene)benzoic acid)]	ΔRU decreases	lower affinity to Neutravidin than biotin	–
O=C(O)CCCC[C@@H]1SC[C@@H]2NC(=O)N[C@@H]21 [biotin]	ΔRU decreases	–	–
p53: p53 peptide (Sequence: CGSGSGSGSGSRFMDYWEGL); p53 protein also known as cellular tumor antigen p53 (also: conjugated to gold nanorods, site not given here)	–	–	ΔRU decreases
